In article PMC5107132 (European journal of pharmacology, 2016):

System: Wistar rats
Assay: Spontaneous locomotor activity
Type: in vivo, rat
Conditions: 15 mg/kg i.p., 45 min

C#Cc1ccc2c(c1)C(c1ccccc1F)=N[C@H](C)c1c(C(=O)NC)ncn1-2 [MP-III-022, (R)-8-Ethynyl-6-(2-fluorophenyl)-N,4-dimethyl-4H-benzo[f]imidazo[1,5-a][1,4]diazepine-3-carboxamide]
Spontaneous locomotor activity, total distance traveled: slight hyperlocomotion
